{"source": "patent US20230049952A1", "about": "“METHODS AND COMPOUNDS FOR RESTORING MUTANT P53 FUNCTION” (PMV Pharmaceuticals, Inc., priority 2020, published 2023)", "tested_on": "p53 signaling pathway in MT373 tumors", "assay": "MT373 syngeneic sarcoma model: mouse p53 signaling pathway profiling panel", "format": "in vivo"}
{"smiles": "CCn1c(C#CCNc2ccccc2)cc2cc(CNC3CCN(C)CC3)ccc21", "note": "[Compound 1, 1-Anilino-3-{1-ethyl-5-[(1-methyl-4-piperidylamino)methyl]-1H-indol-2-yl}-2-propyne]", "values": [{"measurement": "Hif1a fold increase or percent reduction vs vehicle control", "setting": "75 mg/kg BIDx1, 72 h", "result": "1.19 fold or %"}, {"measurement": "Il6 fold increase or percent reduction vs vehicle control", "setting": "75 mg/kg BIDx1, 72 h", "result": "65.67 fold or %"}, {"measurement": "Jun fold increase or percent reduction vs vehicle control", "setting": "75 mg/kg BIDx1, 72 h", "result": "25.77 fold or %"}, {"measurement": "Kras fold increase or percent reduction vs vehicle control", "setting": "75 mg/kg BIDx1, 72 h", "result": "1.09 fold or %"}, {"measurement": "Lig4 fold increase or percent reduction vs vehicle control", "setting": "75 mg/kg BIDx1, 72 h", "result": "1.12 fold or %"}, {"measurement": "Mdm2 fold increase or percent reduction vs vehicle control", "setting": "75 mg/kg BIDx1, 72 h", "result": "2.80 fold or %"}, {"measurement": "Mdm4 fold increase or percent reduction vs vehicle control", "setting": "75 mg/kg BIDx1, 72 h", "result": "14.78 fold or %"}, {"measurement": "Mel1 fold increase or percent reduction vs vehicle control", "setting": "75 mg/kg BIDx1, 72 h", "result": "21.11 fold or %"}, {"measurement": "Mlh1 fold increase or percent reduction vs vehicle control", "setting": "75 mg/kg BIDx1, 72 h", "result": "4.80 fold or %"}, {"measurement": "Msh2 fold increase or percent reduction vs vehicle control", "setting": "75 mg/kg BIDx1, 72 h", "result": "16.07 fold or %"}, {"measurement": "Myod1 fold increase or percent reduction vs vehicle control", "setting": "75 mg/kg BIDx1, 72 h", "result": "2.73 fold or %"}, {"measurement": "Nf1 fold increase or percent reduction vs vehicle control", "setting": "75 mg/kg BIDx1, 72 h", "result": "21.43 fold or %"}, {"measurement": "Nfkb1 fold increase or percent reduction vs vehicle control", "setting": "75 mg/kg BIDx1, 72 h", "result": "1.73 fold or %"}, {"measurement": "Pcna fold increase or percent reduction vs vehicle control", "setting": "75 mg/kg BIDx1, 72 h", "result": "23.22 fold or %"}, {"measurement": "Pmaip1 fold increase or percent reduction vs vehicle control", "setting": "75 mg/kg BIDx1, 72 h", "result": "1.03 fold or %"}, {"measurement": "Ppm1d fold increase or percent reduction vs vehicle control", "setting": "75 mg/kg BIDx1, 72 h", "result": "5.34 fold or %"}, {"measurement": "Prc1 fold increase or percent reduction vs vehicle control", "setting": "75 mg/kg BIDx1, 72 h", "result": "6.02 fold or %"}, {"measurement": "Prkca fold increase or percent reduction vs vehicle control", "setting": "75 mg/kg BIDx1, 72 h", "result": "6.98 fold or %"}, {"measurement": "Pten fold increase or percent reduction vs vehicle control", "setting": "75 mg/kg BIDx1, 72 h", "result": "3.49 fold or %"}, {"measurement": "Pttg1 fold increase or percent reduction vs vehicle control", "setting": "75 mg/kg BIDx1, 72 h", "result": "1.03 fold or %"}, {"measurement": "Rb1 fold increase or percent reduction vs vehicle control", "setting": "75 mg/kg BIDx1, 72 h", "result": "3.16 fold or %"}, {"measurement": "Rela fold increase or percent reduction vs vehicle control", "setting": "75 mg/kg BIDx1, 72 h", "result": "4.69 fold or %"}, {"measurement": "Rprm fold increase or percent reduction vs vehicle control", "setting": "75 mg/kg BIDx1, 72 h", "result": "1.34 fold or %"}, {"measurement": "Serpinb5 fold increase or percent reduction vs vehicle control", "setting": "75 mg/kg BIDx1, 72 h", "result": "15.52 fold or %"}, {"measurement": "Sesn2 fold increase or percent reduction vs vehicle control", "setting": "75 mg/kg BIDx1, 72 h", "result": "1.11 fold or %"}, {"measurement": "Sfn fold increase or percent reduction vs vehicle control", "setting": "75 mg/kg BIDx1, 72 h", "result": "8.30 fold or %"}, {"measurement": "Sirt1 fold increase or percent reduction vs vehicle control", "setting": "75 mg/kg BIDx1, 72 h", "result": "5.18 fold or %"}, {"measurement": "Stat1 fold increase or percent reduction vs vehicle control", "setting": "75 mg/kg BIDx1, 72 h", "result": "1.58 fold or %"}, {"measurement": "Tnf fold increase or percent reduction vs vehicle control", "setting": "75 mg/kg BIDx1, 72 h", "result": "1.28 fold or %"}, {"measurement": "Traf1 fold increase or percent reduction vs vehicle control", "setting": "75 mg/kg BIDx1, 72 h", "result": "1.16 fold or %"}, {"measurement": "Trp53bp2 fold increase or percent reduction vs vehicle control", "setting": "75 mg/kg BIDx1, 72 h", "result": "7.94 fold or %"}, {"measurement": "Trp53 fold increase or percent reduction vs vehicle control", "setting": "75 mg/kg BIDx1, 72 h", "result": "1.11 fold or %"}, {"measurement": "Bbc3 mRNA increase", "setting": "75 mg/kg BID×1, 24 h", "result": 1.80, "unit": "fold"}, {"measurement": "Birc5 mRNA decrease", "setting": "75 mg/kg BID×1, 24 h", "result": 45.92, "unit": "%"}, {"measurement": "Ccng1 mRNA increase", "setting": "75 mg/kg BID×1, 24 h", "result": 4.63, "unit": "fold"}, {"measurement": "Cdc25c mRNA decrease", "setting": "75 mg/kg BID×1, 24 h", "result": 60.54, "unit": "%"}, {"measurement": "Cdk1 mRNA decrease", "setting": "75 mg/kg BID×1, 24 h", "result": 59.92, "unit": "%"}, {"measurement": "Cdkn1a mRNA increase", "setting": "75 mg/kg BID×1, 24 h", "result": 5.16, "unit": "fold"}, {"measurement": "Chek1 mRNA decrease", "setting": "75 mg/kg BID×1, 24 h", "result": 52.36, "unit": "%"}, {"measurement": "Egfr mRNA change", "setting": "75 mg/kg BID×1, 24 h", "result": 28.18, "unit": "%"}, {"measurement": "Il6 mRNA change", "setting": "75 mg/kg BID×1, 24 h", "result": 70.78, "unit": "%"}, {"measurement": "Mdm2 mRNA increase", "setting": "75 mg/kg BID×1, 24 h", "result": 2.76, "unit": "fold"}, {"measurement": "Sesn2 mRNA increase", "setting": "75 mg/kg BID×1, 24 h", "result": 2.05, "unit": "fold"}, {"measurement": "Zmat3 mRNA increase", "setting": "75 mg/kg BID×1, 24 h", "result": 4.14, "unit": "fold"}, {"measurement": "Apex1 fold increase or percent reduction vs vehicle control", "setting": "150 mg/kg BIDx1, 8 h", "result": "27.35 fold or %"}, {"measurement": "Atm fold increase or percent reduction vs vehicle control", "setting": "150 mg/kg BIDx1, 8 h", "result": "22.22 fold or %"}, {"measurement": "Atr fold increase or percent reduction vs vehicle control", "setting": "150 mg/kg BIDx1, 8 h", "result": "27.07 fold or %"}, {"measurement": "Bag1 fold increase or percent reduction vs vehicle control", "setting": "150 mg/kg BIDx1, 8 h", "result": "23.32 fold or %"}, {"measurement": "Bax fold increase or percent reduction vs vehicle control", "setting": "150 mg/kg BIDx1, 8 h", "result": "1.68 fold or %"}, {"measurement": "Bbc3 fold increase or percent reduction vs vehicle control", "setting": "150 mg/kg BIDx1, 8 h", "result": "1.97 fold or %"}, {"measurement": "Bcl2 fold increase or percent reduction vs vehicle control", "setting": "150 mg/kg BIDx1, 8 h", "result": "28.71 fold or %"}, {"measurement": "Bid fold increase or percent reduction vs vehicle control", "setting": "150 mg/kg BIDx1, 8 h", "result": "12.20 fold or %"}, {"measurement": "Birc5 fold increase or percent reduction vs vehicle control", "setting": "150 mg/kg BIDx1, 8 h", "result": "26.07 fold or %"}, {"measurement": "Brca1 fold increase or percent reduction vs vehicle control", "setting": "150 mg/kg BIDx1, 8 h", "result": "34.27 fold or %"}, {"measurement": "Brca2 fold increase or percent reduction vs vehicle control", "setting": "150 mg/kg BIDx1, 8 h", "result": "36.90 fold or %"}, {"measurement": "Btg2 fold increase or percent reduction vs vehicle control", "setting": "150 mg/kg BIDx1, 8 h", "result": "13.04 fold or %"}, {"measurement": "Casp2 fold increase or percent reduction vs vehicle control", "setting": "150 mg/kg BIDx1, 8 h", "result": "34.08 fold or %"}, {"measurement": "Ccnb1 fold increase or percent reduction vs vehicle control", "setting": "150 mg/kg BIDx1, 8 h", "result": "15.72 fold or %"}, {"measurement": "Ccne1 fold increase or percent reduction vs vehicle control", "setting": "150 mg/kg BIDx1, 8 h", "result": "40.62 fold or %"}, {"measurement": "Ccng1 fold increase or percent reduction vs vehicle control", "setting": "150 mg/kg BIDx1, 8 h", "result": "6.49 fold or %"}, {"measurement": "Ccnh fold increase or percent reduction vs vehicle control", "setting": "150 mg/kg BIDx1, 8 h", "result": "29.12 fold or %"}, {"measurement": "Cdc25a fold increase or percent reduction vs vehicle control", "setting": "150 mg/kg BIDx1, 8 h", "result": "34.26 fold or %"}, {"measurement": "Cdk1 fold increase or percent reduction vs vehicle control", "setting": "150 mg/kg BIDx1, 8 h", "result": "39.81 fold or %"}, {"measurement": "Cdk4 fold increase or percent reduction vs vehicle control", "setting": "150 mg/kg BIDx1, 8 h", "result": "47.61 fold or %"}, {"measurement": "Cdkn1a fold increase or percent reduction vs vehicle control", "setting": "150 mg/kg BIDx1, 8 h", "result": "8.66 fold or %"}, {"measurement": "Cdkn2a fold increase or percent reduction vs vehicle control", "setting": "150 mg/kg BIDx1, 8 h", "result": "42.49 fold or %"}, {"measurement": "Chek1 fold increase or percent reduction vs vehicle control", "setting": "150 mg/kg BIDx1, 8 h", "result": "41.91 fold or %"}, {"measurement": "Cradd fold increase or percent reduction vs vehicle control", "setting": "150 mg/kg BIDx1, 8 h", "result": "36.95 fold or %"}, {"measurement": "Cul9 fold increase or percent reduction vs vehicle control", "setting": "150 mg/kg BIDx1, 8 h", "result": "26.00 fold or %"}, {"measurement": "Dapk1 fold increase or percent reduction vs vehicle control", "setting": "150 mg/kg BIDx1, 8 h", "result": "2.02 fold or %"}, {"measurement": "Dnmt1 fold increase or percent reduction vs vehicle control", "setting": "150 mg/kg BIDx1, 8 h", "result": "17.37 fold or %"}, {"measurement": "E2f1 fold increase or percent reduction vs vehicle control", "setting": "150 mg/kg BIDx1, 8 h", "result": "27.89 fold or %"}, {"measurement": "E2f3 fold increase or percent reduction vs vehicle control", "setting": "150 mg/kg BIDx1, 8 h", "result": "27.45 fold or %"}, {"measurement": "Egfr fold increase or percent reduction vs vehicle control", "setting": "150 mg/kg BIDx1, 8 h", "result": "39.84 fold or %"}, {"measurement": "Egr1 fold increase or percent reduction vs vehicle control", "setting": "150 mg/kg BIDx1, 8 h", "result": "53.86 fold or %"}, {"measurement": "Ep300 fold increase or percent reduction vs vehicle control", "setting": "150 mg/kg BIDx1, 8 h", "result": "11.02 fold or %"}, {"measurement": "Ercc1 fold increase or percent reduction vs vehicle control", "setting": "150 mg/kg BIDx1, 8 h", "result": "16.08 fold or %"}, {"measurement": "Esr1 fold increase or percent reduction vs vehicle control", "setting": "150 mg/kg BIDx1, 8 h", "result": "14.42 fold or %"}, {"measurement": "Fadd fold increase or percent reduction vs vehicle control", "setting": "150 mg/kg BIDx1, 8 h", "result": "31.64 fold or %"}, {"measurement": "Fas fold increase or percent reduction vs vehicle control", "setting": "150 mg/kg BIDx1, 8 h", "result": "2.12 fold or %"}, {"measurement": "Fasl fold increase or percent reduction vs vehicle control", "setting": "150 mg/kg BIDx1, 8 h", "result": "3.98 fold or %"}, {"measurement": "Foxo3 fold increase or percent reduction vs vehicle control", "setting": "150 mg/kg BIDx1, 8 h", "result": "1.15 fold or %"}, {"measurement": "Gadd45a fold increase or percent reduction vs vehicle control", "setting": "150 mg/kg BIDx1, 8 h", "result": "23.94 fold or %"}, {"measurement": "Hif1a fold increase or percent reduction vs vehicle control", "setting": "150 mg/kg BIDx1, 8 h", "result": "1.07 fold or %"}]}
